In patent US5436254A, “Carbostyril derivatives” (Otsuka Pharmaceutical Company, Ltd., priority 1989, dated 1995):

Each molecule was assayed against V1 receptor (Rattus norvegicus, UniProt P30560) (assay: biochemical).
Type: binding

Chain of V1 receptor (P30560 whole entry): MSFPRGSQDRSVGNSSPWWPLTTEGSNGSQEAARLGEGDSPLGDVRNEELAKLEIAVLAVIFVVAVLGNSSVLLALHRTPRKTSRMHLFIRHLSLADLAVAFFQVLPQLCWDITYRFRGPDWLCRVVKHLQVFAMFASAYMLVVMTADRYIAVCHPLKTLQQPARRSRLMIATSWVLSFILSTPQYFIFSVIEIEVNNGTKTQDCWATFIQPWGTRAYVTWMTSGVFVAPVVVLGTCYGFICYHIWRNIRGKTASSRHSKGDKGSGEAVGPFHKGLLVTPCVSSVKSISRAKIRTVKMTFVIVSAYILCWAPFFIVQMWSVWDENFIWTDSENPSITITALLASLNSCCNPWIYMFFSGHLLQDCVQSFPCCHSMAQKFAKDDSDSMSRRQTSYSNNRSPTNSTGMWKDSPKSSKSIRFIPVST

**Q.** C=CCc1ccc(C(=O)N2CCC(N3C(=O)CCc4ccccc43)CC2)cc1 [Example 111, 1-[1-(4-Allylbenzoyl)-4-piperidinyl]-3,4-dihydrocarbostyril] was tested. Which IC50 did it give?
**A.** 730 nM

**Q.** With O=C(CC12CC3CC(CC(C3)C1)C2)N1CCC(N2C(=O)CCc3ccccc32)CC1 [Example 115] as the molecule, how does the IC50 read?
**A.** 700 nM

**Q.** Which IC50 does the source give for CNC(=O)NCCCOc1ccc(C(=O)N2CCC(N3C(=O)CCc4ccccc43)CC2)cc1 [Example 23, 1-[1-{4-[3-(3-Methylureido)propoxy]benzoyl}-4-piperidinyl]-3,4-dihydrocarbostyril] here?
**A.** 240 nM

**Q.** How did the IC50 turn out when O=C(c1ccc(OCCCCC(O)CN2CCC[C@H]2CO)cc1)N1CCC(N2C(=O)CCc3ccccc32)CC1 (stereo partly shown) [Example 220] was run?
**A.** 20 nM

**Q.** Which IC50 does the source give for O=C(CCCCCOc1ccc(C(=O)N2CCC(N3C(=O)CCc4ccccc43)CC2)cc1)c1nc2cnccc2[nH]1 [Example 154, 1-{1-[4-(5-(Imidazo[4,5-c]pyridine-2-yl)carbonylpentyloxy)benzoyl]-4-piperidinyl}-3,4-dihydrocarbostyril] here?
**A.** 200 nM

**Q.** Which IC50 does the source give for O=C(c1ccc(OCCCC[S+]([O-])c2nc3ccccc3[nH]2)cc1)N1CCC(N2C(=O)CCc3ccccc32)CC1 (stereo not shown) [Example 194, 1-{1-[4-(4-(Benzimidazol-2-yl)sulfinylbutoxy)benzoyl]-4-piperidinyl}-3,4-dihydrocarbostyril] here?
**A.** 350 nM

**Q.** Which IC50 does the source give for CN1CCN(CCCCOc2ccc(C(=O)N3CCC(N4C(=O)CCc5ccccc54)CC3)cc2)CC1 [Example 158, 1-{1-[4-[4-(4-Methyl-1-piperazinyl)butoxy]benzoyl]-4-piperidinyl}-3,4-dihydrocarbostyril.dioxalate] here?
**A.** 100 nM

**Q.** N#CCCCOc1ccc(C(=O)N2CCC(N3C(=O)CCc4ccccc43)CC2)cc1 [Example 5, 1-{1-[4-(3-Cyanopropoxy)benzoyl]-4-piperidinyl}-3,4-dihydrocarbostyril] was tested. Which IC50 did it give?
**A.** 490 nM

**Q.** For CC(=O)N1CCN(CCCOc2ccc(C(=O)N3CCC(N4C(=O)CCc5ccccc54)CC3)cc2)CC1 [Example 134, 1-[1-{4-[3-(4-Acetyl-1-piperazinyl)propoxy]-benzoyl}-4-piperidinyl]-3,4-dihydrocarbostyril], which IC50 is on record?
**A.** 160 nM

**Q.** For CC(=O)OCC(=O)NCCCCCOc1ccc(C(=O)N2CCC(N3C(=O)CCc4ccccc43)CC2)cc1 [Example 229, 1-{1-(4-[5-(2-Acetoxyacetylamino)pentyloxy]benzoyl)-4-piperidinyl]-3,4-dihydrocarbostyril], which IC50 is on record?
**A.** 200 nM

**Q.** How did the IC50 turn out when COC(=O)[C@@H]1CCCN1CCCCCOc1ccc(C(=O)N2CCC(N3C(=O)CCc4ccccc43)CC2)cc1 [Example 239, 1-{1-(4-[5-(2-(S)-Methoxycarbonyl-1-pyrrolidinyl)pentyloxy]benzoyl)-4-piperidinyl}-3,4-dihydrocarbostyril] was run?
**A.** 150 nM

**Q.** With CC[N+](CC)(CC)CCCCCOc1ccc(C(=O)N2CCC(N3C(=O)CCc4ccccc43)CC2)cc1 [Example 235, 1-{1-[4-(5-Triethylammouniumpentyloxy)benzoyl]-4-piperidinyl)-3,4-dihydrocarbostyril bromide] as the molecule, how does the IC50 read?
**A.** 66 nM

**Q.** For O=C(CCCCCOc1ccc(C(=O)N2CCC(N3C(=O)CCc4ccccc43)CC2)cc1)N1CCNCC1 [Example 270, 1-{1-(4-[5-(1-Piperazinylcarbonyl)pentyloxy]benzoyl)-4-piperidinyl}-3,4-dihydrocarbostyril], which IC50 is on record?
**A.** 44 nM

**Q.** How did the IC50 turn out when O=C(OCCCCOc1ccc(C(=O)N2CCC(N3C(=O)CCc4ccccc43)CC2)cc1)N1CCNCC1 [Example 163, 1-{1-[4-[4-(1-Piperazinyl)carbonyloxybutoxy]benzoyl]-4-piperidinyl}-3,4-dihydrocarbostyril] was run?
**A.** 75 nM

**Q.** For O=C(CCCNC(=O)OCc1ccccc1)NCCCCCOc1ccc(C(=O)N2CCC(N3C(=O)CCc4ccccc43)CC2)cc1 [Example 250, 1-{1-(4-[5-(4-Benzyloxycarbonylaminobutyrylamino)pentyloxy]benzoyl)-4-piperidinyl}-3,4-dihydrocarbostyril], which IC50 is on record?
**A.** 320 nM

**Q.** With COc1ccc(C(=O)N2CCC(N3C(=O)CCc4ccccc43)CC2)c(O)c1 [Example 60, 1-[1-(2-Hydroxy-4-methoxybenzoyl)-4-piperidinyl]-3,4-dihydrocarbostyril] as the molecule, how does the IC50 read?
**A.** 200 nM

**Q.** For NC(=O)OCCCOc1ccc(C(=O)N2CCC(N3C(=O)CCc4ccccc43)CC2)cc1 [Example 35, 1-{1-[4-(3-Carbamoyloxypropoxy)benzoyl]-4-piperidinyl}-3,4-dihydrocarbostyril], which IC50 is on record?
**A.** 150 nM

**Q.** How did the IC50 turn out when O=C(c1ccc(CCCCO)cc1)N1CCC(N2C(=O)CCc3ccccc32)CC1 [Example 123, 1-{1-[4-(4-Hydroxybutyl)benzoyl]-4-piperidinyl}-3,4-dihydrocarbostyril] was run?
**A.** 350 nM

**Q.** COc1ccc(C(=O)N2CCC(N3C(=O)CCc4ccccc43)CC2)c(N(C)C)c1 [Example 55, 1-[1-(2-Dimethylamino-4-methoxybenzoyl)-4-piperidinyl]-3,4-dihydrocarbostyril] was tested. Which IC50 did it give?
**A.** 200 nM

**Q.** With CN(C)CCN(CCCCCOc1ccc(C(=O)N2CCC(N3C(=O)CCc4ccccc43)CC2)cc1)Cc1ccccc1 [Example 248, 1-{1-(4-[5-(N-(2-Dimethylaminoethyl)-N-benzylamino)pentyloxy]benzoyl)-4-piperidinyl}-3,4-dihydrocarbostyril] as the molecule, how does the IC50 read?
**A.** 34 nM

**Q.** Which IC50 does the source give for CCN(C)c1cc(OC)ccc1C(=O)N1CCC(N2C(=O)CCc3ccccc32)CC1 [Example 58, 1-{1-[2-(N-Methyl-N-ethylamino)-4-methoxybenzoyl]-4-piperidinyl}-3,4-dihydrocarbostyril] here?
**A.** 450 nM

**Q.** Which IC50 does the source give for NC(=O)CNC(=O)CCCOc1ccc(C(=O)N2CCC(N3C(=O)CCc4ccccc43)CC2)cc1 [Example 9, 1-{1-[4-(3-Carbamoylmethylaminocarbonylpropoxy)benzoyl]-4-piperidinyl}-3,4-dihydrocarbostyril] here?
**A.** 350 nM

**Q.** O=C(c1ccc(OC2C=CCCC2)cc1)N1CCC(N2C(=O)CCc3ccccc32)CC1 (stereo not shown) [Example 98, 1-{1-[4-(2-Cyclohexenyloxy)benzoyl]-4-piperidinyl}-3,4-dihydrocarbostyril] was tested. Which IC50 did it give?
**A.** 770 nM

**Q.** Which IC50 does the source give for NC(=O)[C@H](Cc1c[nH]cn1)NC(=O)CCCCCOc1ccc(C(=O)N2CCC(N3C(=O)CCc4ccccc43)CC2)cc1 [Example 149, 1-{1-[4-{5-[1-(S)-Carbamoyl-2{4(1H)-imidazoyl}]ethylaminocarbonylpentyloxy)benzoyl]-4-piperidinyl}-3,4-dihydrocarbostyril] here?
**A.** 150 nM

**Q.** With CC(=O)N1CCC(C(=O)NCCCCOc2ccc(C(=O)N3CCC(N4C(=O)CCc5ccccc54)CC3)cc2)CC1 [Example 232, 1-{1-(4-[4-(1-Acetyl-4-piperidinylcarbonylamino)butoxy]benzoyl)-4-piperidinyl)-3,4-dihydrocarbostyril] as the molecule, how does the IC50 read?
**A.** 120 nM

**Q.** With CC(=O)Nc1ccc(S(=O)(=O)CCCCCOc2ccc(C(=O)N3CCC(N4C(=O)CCc5ccccc54)CC3)cc2)cc1 [Example 289, 1-{1-(4-[5-(4-Acetylaminophenylsulfonyl)pentyloxy]benzoyl)-4-piperidinyl}-3,4-dihydrocarbostyril] as the molecule, how does the IC50 read?
**A.** 100 nM

**Q.** With O=C(c1ccc(OCCCCCCN2CCCCC2)cc1)N1CCC(N2C(=O)CCc3ccccc32)CC1 [Example 243, 1-{1-(4-[6-(1-Piperidinyl)hexyloxy]benzoyl)-4-piperidinyl}-3,4-dihydrocarbostyril] as the molecule, how does the IC50 read?
**A.** 39 nM

**Q.** How did the IC50 turn out when O=C(NCCCCCOc1ccc(C(=O)N2CCC(N3C(=O)CCc4ccccc43)CC2)cc1)C1CCC(O)C(O)C1 (stereo not shown) [Example 260] was run?
**A.** 150 nM
